Assay results reported in patent US10190104B2, “Isoform of anaplastic lymphoma kinase and its uses” (Memorial Sloan-Kettering Cancer Center, priority 2014, dated 2019).

System: ALK-transformed Ba/F3 cells
Assay: Cell viability assay of Ba/F3 cells expressing ALK isoforms treated with ALK inhibitors
Format: cell-based, murine
Conditions: cell viability after 72 hours; for IL-3-independent growth of ALK-transformed Ba/F3 cells: absence of IL-3, CellTiter-Glo; for growth in the presence of IL-3: presence of IL-3 (1 ng/ml)
Description: Ba/F3 cells were stably transduced with MSCV-ALK^variant-IRES-GFP constructs with a multiplicity of infection (MOI) of ˜0.26. Based on the MOI calculations, ˜78% of cells were uninfected, ˜20% of cells were infected with one virus particle, and ˜2% of cells were infected by more than one viral particle. Stably transduced Ba/F3 cells were cultured in RPMI medium supplemented with IL-3 (1 ng ml-1) and the transduction rate of 20% was validated using flow cytometry for GFP, that was co-expressed with the ALK variants. For the cell proliferation assay, transduced Ba/F3 cells were transferred into IL-3 depleted RPMI medium and cell growth was quantified every 2-4 days with a luminescence assay (#G7571, Promega). […] All drugs were suspended in DMSO. The cell viability was assessed after 72 hours by a luminescence assay CellTiter-Glo (#G7571, Promega). Results were normalized to growth of cells in a medium containing an equivalent volume of DMSO. The inhibition curve was determined with GraphPad Prism 6.0 software using the ‘log(inhibitor) vs. response variable slope’ non-linear regression model.

Row | SMILES | IL-3-independent growth of ALK-transformed Ba/F3 cells | growth in the presence of IL-3
1 | Cc1cc(Nc2ncc(Cl)c(Nc3ccccc3S(=O)(=O)C(C)C)n2)c(OC(C)C)cc1C1CCNCC1 [ceritinib] | effectively inhibited | no effect
2 | COc1cc(N2CCC(N3CCN(C)CC3)CC2)ccc1Nc1ncc(Cl)c(Nc2ccccc2S(=O)(=O)C(C)C)n1 [TAE-684, NVP-TAE684] | effectively inhibited | no effect
